Measurements reported in ChEMBL document CHEMBL1154024, “Synthesis of radiolabeled cytarabine conjugates” (2009).
Active and inactive are the calls of the source. The rule behind the calls is not given here.

How the values were obtained:
[1] = test system: NCI-H441; assay: Cytotoxicity against human H441 cells after 72 hrs by trypan blue cell exclusion assay; type: functional, cell-based
[2] = Cytotoxicity in human H441 cells at 2 uM after 72 hrs by trypan blue cell exclusion assay; type: functional, NCI-H441
[3] = test system: NCI-H441; assay: Cytotoxicity against human H441 cells by serum lactate dehydrogenase assay; type: functional, cell-based
[4] = test system: NCI-H441; assay: Cytotoxicity against human H441 cells by glucosaminidase assay; type: functional, cell-based

Row | Compound | Activity [1] | Activity [2] | Activity [3] | Activity [4]
1 | Nc1ccn([C@@H]2O[C@H](CO)[C@@H](O)[C@@H]2O)c(=O)n1 [CYTARABINE] | Dose-dependent effect | 55% | Active | Active
2 | NNc1ccc(C(=O)Nc2ccn([C@@H]3O[C@H](CO)[C@@H](O)[C@@H]3O)c(=O)n2)cn1 | Dose-dependent effect | 55% | Active | Active
